Experimental data: ChEMBL document CHEMBL1201862, “PubChem BioAssay data set” (2004)
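Values below derive from 48-hour exposures of cells grown in 96-well plates, with endpoints linearly interpolated between the two concentrations bracketing the appropriate inhibition level. GI50 marks 50% less growth.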 Activity calls are given as the source filed them. Cut-off read from the data, not from the text of the source: active = GI50 up to about 1.1 µM and inactive = higher.

Columns and labels:
Assay in all cases: inhibition of tumour cell growth, NCI panel, 48 h
HOP-62 = test system: HOP-62
IGROV-1 = test system: IGROV-1
SK-MEL-28 = test system: SK-MEL-28
K562 = test system: K562
OVCAR-4 = test system: OVCAR-4
SN12C = test system: SN12C
SK-MEL-2 = test system: SK-MEL-2
SW-620 = test system: SW-620
OVCAR-8 = test system: OVCAR-8
SR = test system: SR
U-251 = test system: U-251
HCT-15 = test system: HCT-15
KM12 = test system: KM12
HT-29 = test system: HT-29
NCI-H23 = test system: NCI-H23
LOX IMVI = test system: LOX IMVI
A498 = test system: A498
COLO 205 = test system: COLO 205
SNB-19 = test system: SNB-19
MCF7 = test system: MCF7

Row | SMILES | GI50 (HOP-62) | GI50 (IGROV-1) | GI50 (SK-MEL-28) | GI50 (K562) | GI50 (OVCAR-4) | GI50 (SN12C) | GI50 (SK-MEL-2) | GI50 (SW-620) | GI50 (OVCAR-8) | GI50 (SR) | GI50 (U-251) | GI50 (HCT-15) | GI50 (KM12) | GI50 (HT-29) | GI50 (NCI-H23) | GI50 (LOX IMVI) | GI50 (A498) | GI50 (COLO 205) | GI50 (SNB-19) | GI50 (MCF7)
1 | COC1OC2=CCC3C(=O)NC(=O)C3C2[C@H](OCc2ccccc2)C1OCc1ccccc1 (stereo partly drawn) | 17.9 µM (inactive) | 2.04 µM (inactive) | 1.84 µM (inactive) | 1.82 µM (inactive) | 3.84 µM (inactive) | 1.74 µM (inactive) | 5.36 µM (inactive) | 1.49 µM (inactive) | 1.6 µM (inactive) | 2.1 µM (inactive) | 18.7 µM (inactive) | 1.93 µM | 5.9 µM (inactive) | 1.82 µM (inactive) | 2.22 µM (inactive) | 1.73 µM (inactive) |  |  |  | 
2 | CCOC(=O)NC(C(F)(F)F)(C(F)(F)F)P(=O)(OCC(C)C)OCC(C)C | 30 µM (inactive) | 10.2 µM (inactive) | 18 µM (inactive) | 7.28 µM (inactive) |  | 16.2 µM (inactive) | 14.9 µM (inactive) | 3.82 µM (inactive) | 5.41 µM (inactive) | 9.77 µM (inactive) | 5.98 µM (inactive) | 4.18 µM | 14 µM (inactive) | 11.5 µM (inactive) |  | 4.49 µM (inactive) | 41.9 µM (inactive) | 10.2 µM (inactive) | 28.8 µM (inactive) | 4.7 µM (inactive)
3 | CSc1nsc(-c2ccccc2)[s+]1.[O-][Cl+3]([O-])([O-])[O-] | > 100 µM (inactive) | > 100 µM (inactive) | > 100 µM (inactive) | 64.1 µM (inactive) | > 100 µM (inactive) | > 100 µM (inactive) | > 100 µM (inactive) | > 100 µM (inactive) | > 100 µM (inactive) | > 100 µM (inactive) | > 100 µM (inactive) | > 100 µM | > 100 µM (inactive) |  |  |  | > 100 µM (inactive) | > 100 µM (inactive) | > 100 µM (inactive) | 
4 | C/C(=N/NC(N)=S)c1ccc2ccccc2c1 | 46.6 µM (inactive) | 32.7 µM (inactive) | 36.1 µM (inactive) |  | 28.3 µM (inactive) | 32.7 µM (inactive) | 15.8 µM (inactive) | 33.3 µM (inactive) | 32.9 µM (inactive) | 74.5 µM (inactive) | 24.8 µM (inactive) | 22.2 µM | 9.16 µM (inactive) | 19.7 µM (inactive) | 29.7 µM (inactive) | 39.8 µM (inactive) | 42.4 µM (inactive) | 21.4 µM (inactive) | 83.2 µM (inactive) | 
5 | C/C(=N\Oc1cc(Cl)ncn1)c1ccccn1 | 38.1 µM (inactive) | 21.9 µM (inactive) | 39.5 µM (inactive) | 56.5 µM (inactive) | > 100 µM (inactive) | > 100 µM (inactive) | 14.1 µM (inactive) | 84.7 µM (inactive) | > 100 µM (inactive) | 31.7 µM (inactive) | 60.5 µM (inactive) |  | > 100 µM (inactive) | 95.7 µM (inactive) | 34.1 µM (inactive) | 42.3 µM (inactive) |  | > 100 µM (inactive) | > 100 µM (inactive) | 55.3 µM (inactive)
6 | CC(=O)OCc1nnn2c1CCC2 | > 100 µM (inactive) | > 100 µM (inactive) | > 100 µM (inactive) | > 100 µM (inactive) | > 100 µM (inactive) | > 100 µM (inactive) | > 100 µM (inactive) | > 100 µM (inactive) | > 100 µM (inactive) | > 100 µM (inactive) | > 100 µM (inactive) | > 100 µM | > 100 µM (inactive) | > 100 µM (inactive) | > 10 µM (inactive) | > 100 µM (inactive) |  |  |  | 
7 | C=C(C)C(=O)OC1CCC2(C)C(CCC3C2CCC2(C)C(c4ccc(=O)oc4)CC4OC432)C1 (stereo not drawn) | 3.31 µM (inactive) | 6.75 µM (inactive) | 12.5 µM (inactive) | 2.69 µM (inactive) | 5.75 µM (inactive) | 3.61 µM (inactive) | 4.28 µM (inactive) | 6.34 µM (inactive) | 5.51 µM (inactive) |  | 6.73 µM (inactive) | 6.78 µM | 6.4 µM (inactive) | 7.94 µM (inactive) | 3.49 µM (inactive) | 3.82 µM (inactive) | 5.02 µM (inactive) | 8.18 µM (inactive) | 18.5 µM (inactive) | 2.48 µM (inactive)
8 | O=C1CC2(CCC(O)(c3cccs3)C(C(=O)c3cccs3)C2)C(=O)c2ccccc2N1 (stereo not drawn) | > 100 µM (inactive) | > 100 µM (inactive) |  | 40.8 µM (inactive) |  | > 100 µM (inactive) | > 100 µM (inactive) | > 100 µM (inactive) | > 100 µM (inactive) | > 100 µM (inactive) | 90.4 µM (inactive) | 28.5 µM |  | 40.6 µM (inactive) | > 100 µM (inactive) | 89.3 µM (inactive) | > 100 µM (inactive) | 33.7 µM (inactive) |  | 77.4 µM (inactive)
9 | O=C1C=C(C2OC(CO)C(O)C2O)C(=O)N1 (stereo not drawn) | > 100 µM (inactive) | > 100 µM (inactive) | > 100 µM (inactive) | 47.6 µM (inactive) | > 100 µM (inactive) | > 100 µM (inactive) | > 100 µM (inactive) | 26 µM (inactive) | > 100 µM (inactive) |  | > 100 µM (inactive) | > 74.5 µM | > 100 µM (inactive) | > 100 µM (inactive) | > 100 µM (inactive) | > 100 µM (inactive) | > 100 µM (inactive) | 76.9 µM (inactive) | > 100 µM (inactive) | > 91.8 µM (inactive)
10 | CCOc1ccc(NC(=O)C(=O)CC(=O)c2sc(NNC(C)=O)nc2C)cc1 | > 100 µM (inactive) | > 100 µM (inactive) | > 100 µM (inactive) | > 100 µM (inactive) | > 100 µM (inactive) | > 100 µM (inactive) | > 100 µM (inactive) | > 100 µM (inactive) | > 100 µM (inactive) | > 100 µM (inactive) | > 100 µM (inactive) | > 100 µM | > 100 µM (inactive) | > 100 µM (inactive) | > 100 µM (inactive) | > 100 µM (inactive) | > 100 µM (inactive) | > 100 µM (inactive) | > 100 µM (inactive) | 
11 | COc1ccc2c(c1)C(=O)/C(=C/c1ccccc1)C2 | 29.6 µM (inactive) | > 100 µM (inactive) | > 100 µM (inactive) | 29 µM (inactive) | 55.7 µM (inactive) | > 100 µM (inactive) | 74.1 µM (inactive) |  | > 100 µM (inactive) | 76.7 µM (inactive) | > 100 µM (inactive) | 69 µM | > 100 µM (inactive) | 31.6 µM (inactive) | 42.4 µM (inactive) |  | 44 µM (inactive) |  | 95.1 µM (inactive) | 7.36 µM (inactive)
12 | CN(C(=O)C1(C(=O)C=[N+]=[N-])CC1)c1ccccc1 | > 100 µM (inactive) | > 100 µM (inactive) | > 100 µM (inactive) | > 100 µM (inactive) |  | > 100 µM (inactive) | > 100 µM (inactive) | > 100 µM (inactive) | > 100 µM (inactive) | > 100 µM (inactive) | > 100 µM (inactive) | > 100 µM | > 100 µM (inactive) | > 100 µM (inactive) | > 100 µM (inactive) | > 100 µM (inactive) |  | > 100 µM (inactive) | > 100 µM (inactive) | > 100 µM (inactive)
13 | COc1ccc(-c2cc3[nH]nc(N)c3c(=O)o2)cc1 |  | > 100 µM (inactive) | > 100 µM (inactive) | > 100 µM (inactive) | > 100 µM (inactive) | > 100 µM (inactive) | > 100 µM (inactive) | > 100 µM (inactive) | > 100 µM (inactive) | > 100 µM (inactive) | 89.9 µM (inactive) | > 100 µM | > 100 µM (inactive) | > 100 µM (inactive) | > 100 µM (inactive) | > 100 µM (inactive) | 76.9 µM (inactive) | > 100 µM (inactive) | > 100 µM (inactive) | 
14 | COc1ccc(/C(C#N)=C2/O/C(=N/N)C(c3ccc(OC)c(OC)c3)C2=O)cc1OC (stereo not drawn) |  | > 100 µM (inactive) | > 100 µM (inactive) | > 100 µM (inactive) |  | > 100 µM (inactive) | > 100 µM (inactive) | > 100 µM (inactive) |  | > 100 µM (inactive) | > 100 µM (inactive) | > 100 µM | > 100 µM (inactive) | > 100 µM (inactive) | > 100 µM (inactive) | > 100 µM (inactive) |  |  |  | 
15 | Cc1occc1/C(S)=N\c1ccc(Cl)c(C(=O)OCC(F)(F)F)c1 |  | 18.4 µM (inactive) | 21.5 µM (inactive) | 18.5 µM (inactive) | 17.9 µM (inactive) | 18.8 µM (inactive) | 22 µM (inactive) | 23.7 µM (inactive) | 16.7 µM (inactive) |  | 19 µM (inactive) | 19.6 µM | 20.8 µM (inactive) | 17.5 µM (inactive) | 19.7 µM (inactive) | 18.4 µM (inactive) | 15 µM (inactive) | 22.4 µM (inactive) | 20.3 µM (inactive) | 12.2 µM (inactive)
16 | C=CCCCCCCCCC(=O)O [UNDECYLENIC ACID] | 105 µM (inactive) | 113 µM (inactive) | 135 µM (inactive) | 152 µM (inactive) | 132 µM (inactive) | 149 µM (inactive) | 85.3 µM (inactive) | 125 µM (inactive) | 121 µM (inactive) |  | 112 µM (inactive) | 76.6 µM | 27.7 µM (inactive) | 118 µM (inactive) | 122 µM (inactive) | 102 µM (inactive) | 0.798 µM (active) | 41.3 µM (inactive) | 150 µM (inactive) | 152 µM (inactive)
